Reference: US7148028B2, “Methods and means relating to atherosclerosis” (priority 2001, dated 2006)
Several values for one entry are separate records, joined by “and”; a condition that tells them apart may be missing. Equal entries are not always repeated. Entries after “also recorded” stand apart in the source; their conditions may differ. Structures can show the parent of a compound that is named as a salt. Where two headings read alike, the source gives them in different places.

Columns and labels:
anti-Chlamydia abzymes [1] = format: biochemical, human; set-up: key to In-vitro Inhibition: + = inhibition; − = no inhibition
anti-Chlamydia abzymes [2] = format: in vivo, human; conditions: for abzyme activity of individuals, + aspirin: self-reported aspirin takers, one value per individual
[3] = Clinical condition, modified Rose-Blackburn Questionnaire; format: in vivo, human
Source text: The progression of the clinical condition of the patients was monitored by the use of the modified Bruce Protocol for treadmill exercise/stress ECG testing and on the Rose-Blackburn Questionnaire (Cardiovascular Survey Methods. WHO, Geneva, 1968)

lesion IgG = assay: LDL peroxidation by lesion IgG (MDA); format: biochemical, human
[4] = system: Chlamydia pneumoniae or Chlamydia Psittaci; format: biochemical
[5] = 10 μM of each agent, control 24.3

CC(=O)Oc1ccccc1C(=O)O [Aspirin, acetylsalicylic acid]
Result (inhibition of anti-Chlamydia abzymes) (anti-Chlamydia abzymes [1]; 10 μM of each agent): Positive
Lipid oxidising activity of anti-Chlamydia abzymes (anti-Chlamydia abzymes [1]; [5]): 6.2 μM MDA/ml
abzyme activity after a week (anti-Chlamydia abzymes [2]; 250 mg aspirin daily, the other two CHD patients): undetectably low level
abzyme activity, aspirin alone (anti-Chlamydia abzymes [2]; Therapy Group D, 250 mg daily): reduction in the abzyme activity but to a lesser degree than observed with the combination
individuals positive for abzymes / individuals, + aspirin (anti-Chlamydia abzymes [2]; stable angina class I): 1/6
percentage positive for abzymes, + aspirin (anti-Chlamydia abzymes [2]; stable angina class I): 17%
abzyme activity, group mean, + aspirin (anti-Chlamydia abzymes [2]; stable angina class I, n = 6, without aspirin 30.0): 10.0
abzyme activity of individuals, + aspirin (anti-Chlamydia abzymes [2]; stable angina class I): 5 and 45 and 0 (3×) and 10
individuals positive for abzymes / individuals, + aspirin (anti-Chlamydia abzymes [2]; stable angina class II): 4/15
percentage positive for abzymes, + aspirin (anti-Chlamydia abzymes [2]; stable angina class II): 27%
abzyme activity, group mean, + aspirin (anti-Chlamydia abzymes [2]; stable angina class II, n = 15, without aspirin 32.2): 9.2
abzyme activity of individuals, + aspirin (anti-Chlamydia abzymes [2]; stable angina class II): 5 (4×) and 10 (2×) and 0 (4×) and 25 and 3.3 and 30
individuals positive for abzymes / individuals, + aspirin (anti-Chlamydia abzymes [2]; stable angina class III): 6/10
percentage positive for abzymes, + aspirin (anti-Chlamydia abzymes [2]; stable angina class III): 60%
abzyme activity of individuals, + aspirin (anti-Chlamydia abzymes [2]; stable angina class III): 0 (3×) and 45 and 5 and 35 and 15 and 30 and 20
individuals positive for abzymes / individuals, + aspirin (anti-Chlamydia abzymes [2]; unstable angina IV): 6/7
percentage positive for abzymes, + aspirin (anti-Chlamydia abzymes [2]; unstable angina IV): 86%
abzyme activity of individuals, + aspirin (anti-Chlamydia abzymes [2]; unstable angina IV): 130 and 70 and 0 and 37 and 90 and 100 and 180

CC[C@H]1OC(=O)[C@H](C)[C@@H](O[C@H]2C[C@@](C)(OC)[C@@H](O)[C@H](C)O2)[C@H](C)[C@@H](O[C@@H]2O[C@H](C)C[C@H](N(C)C)[C@H]2O)[C@](C)(O)C[C@@H](C)CN(C)[C@H](C)[C@@H](O)[C@]1(C)O [Azithromycin]
in vitro inhibition of abzyme activity (anti-Chlamydia abzymes [1]): strong in vitro inhibitor of abzyme activity
Lipid oxidising activity of anti-Chlamydia abzymes (anti-Chlamydia abzymes [1]; in DMSO, 5 μM, control 61, DMSO effect deducted): 0 μM MDA/ml
Abzyme activity after 15 days / two weeks (anti-Chlamydia abzymes [2]; Example 8, stable angina patients): reduced abzyme activity
Anti-Chlamydia abzyme activity, 45 days, group mean (anti-Chlamydia abzymes [2]; Therapy Group A, before 47.5): 7.4 μM MDA/ml
Anti-Chlamydia abzyme activity, 60 days, group mean (anti-Chlamydia abzymes [2]; Therapy Group A, before 47.5): 1.6 μM MDA/ml
Clinical condition After 15 days of treatment ([3]; Table 17, anti-microbial agent only, single patients): angina class II;; also recorded: Stable condition;
Score by modified Rose-Blackburn Questionnaire, 60 days after start of the treatment, group mean ([3]; before: A 19.4 ± 1.79, B 20.4 ± 1.24, C 18.6 ± 0.81): 14.4 ± 1.14

CCN(CC)C(=S)S [DDC]
In-vitro Inhibition (anti-Chlamydia abzymes [1]): +
Result (inhibition of anti-Chlamydia abzymes) (anti-Chlamydia abzymes [1]; 10 μM of each agent): Positive
Lipid oxidising activity of anti-Chlamydia abzymes (anti-Chlamydia abzymes [1]; [5]): 0 μM MDA/ml

C[S+](C)[O-] [DMSO]
Level of MDA production by 0.82 μg of lesion IgG (lesion IgG; +1% antioxidant, LDL 480 μg of protein, control 0.49 ± 0.023): 0 µM
development of lipid oxidation reaction after treatment of Chlamydia with chaotropic agents [4]: completely abrogated

O=C(O)CN(CCN(CC(=O)O)CC(=O)O)CCN(CC(=O)O)CC(=O)O [DTPA]
Result (inhibition of anti-Chlamydia abzymes) (anti-Chlamydia abzymes [1]; 10 μM of each agent): Negative

O=[N+]([O-])OCC(CO[N+](=O)[O-])O[N+](=O)[O-] [Glyceryl Trinitrate]
Anti-Abzyme accivity (anti-Chlamydia abzymes [1]; 4.4 μM, control 21.7): 0 μM MDA/ml
Anti-Abzyme accivity (anti-Chlamydia abzymes [1]; 22 μM, control 21.7): 0 μM MDA/ml
Anti-Abzyme accivity (anti-Chlamydia abzymes [1]; 44 μM, control 21.7): 0 μM MDA/ml
Anti-Abzyme accivity (anti-Chlamydia abzymes [1]; 220 μM, control 21.7): 0 μM MDA/ml

O=[N+]([O-])O[C@H]1CO[C@H]2[C@@H]1OC[C@H]2O[N+](=O)[O-] [Isosorbide Dinitrate]
Anti-Abzyme accivity (anti-Chlamydia abzymes [1]; 42 μM, control 21.7): 0 μM MDA/ml
Anti-Abzyme accivity (anti-Chlamydia abzymes [1]; 211 μM, control 21.7): 0 μM MDA/ml

CCC[C@@H]1C[C@@H](C(=O)N[C@@H]([C@H]2O[C@H](SC)[C@H](O)[C@@H](O)[C@H]2O)[C@@H](C)O)N(C)C1 [Lincomycin Hydrochloride]
Anti-Abzyme accivity (anti-Chlamydia abzymes [1]; 6.5 μM, control 21.7): 28.5 μM MDA/ml
Anti-Abzyme accivity (anti-Chlamydia abzymes [1]; 13 μM, control 21.7): 30.3 μM MDA/ml

[N-]=[N+]=[N-].[Na+] [NaN1]
Result (inhibition of anti-Chlamydia abzymes) (anti-Chlamydia abzymes [1]; 10 μM of each agent): Positive
Lipid oxidising activity of anti-Chlamydia abzymes (anti-Chlamydia abzymes [1]; [5]): 0 μM MDA/ml

CC(C)(S)[C@@H](N)C(=O)O [Penicillamine]
Result (inhibition of anti-Chlamydia abzymes) (anti-Chlamydia abzymes [1]; 10 μM of each agent): Positive
Lipid oxidising activity of anti-Chlamydia abzymes (anti-Chlamydia abzymes [1]; [5]): 0 μM MDA/ml

O=C(O)c1ccccn1 [Picolinic acid]
Result (inhibition of anti-Chlamydia abzymes) (anti-Chlamydia abzymes [1]; 10 μM of each agent): Positive
Lipid oxidising activity of anti-Chlamydia abzymes (anti-Chlamydia abzymes [1]; [5]): 0 μM MDA/ml

CC(C)NCC(O)COc1cccc2ccccc12 (stereo not shown) [Propranolol Hydrochloride]
Anti-Abzyme accivity (anti-Chlamydia abzymes [1]; Hydrochloride): 21.3 μM MDA/ml and 18.3 μM MDA/ml

CCCCCCCCCCCCOS(=O)(=O)[O-].[Na+] [SDS]
lipid oxidising reaction with treated Chlamydia samples [4]: no lipid oxidising reaction

N.N.O=S(=O)(O)O [ammonium sulphate]
lipid oxidising reaction with treated Chlamydia samples [4]: no lipid oxidising reaction

O=C(O)c1ccccc1 [benzoic acid]
Level of MDA production by 0.82 μg of lesion IgG (lesion IgG; pH 5.6): 0 µM

C=O [formalin]
lipid oxidising reaction with treated Chlamydia samples [4]: no lipid oxidising reaction

O=C[O-].[Na+] [sodium formate]
Level of MDA production by 0.82 μg of lesion IgG (lesion IgG; +0.1 M antioxidant, LDL 480 μg of protein, 16 h 37° C. pH 5.6, control 0.49 ± 0.023): 0 µM

Heparin
Anti-Abzyme accivity (anti-Chlamydia abzymes [1]; 0.1 mg/ml, control 21.7): 19.7 μM MDA/ml

Igepal CA-630
development of lipid oxidation reaction after treatment of Chlamydia with chaotropic agents [4]: completely abrogated
oxidation of the lipids in the bacteria by the extracted abzymes after detergent treatment [4]: abolished

Nadroparin Calcium
Anti-Abzyme accivity (anti-Chlamydia abzymes [1]; 5 UI, control 21.7): 20.5 μM MDA/ml
Anti-Abzyme accivity (anti-Chlamydia abzymes [1]; 65 UI, control 21.7): 12.8 μM MDA/ml

Triton X-100
development of lipid oxidation reaction after treatment of Chlamydia with chaotropic agents [4]: completely abrogated
oxidation of the lipids in the bacteria by the extracted abzymes after detergent treatment [4]: abolished
